Here are results for eleven compounds from US9771372B2, “Compounds useful as S100-inhibitors” (Active Biotech AB, priority 2014, dated 2017).

The target of this assay is T1, interaction between biotinylated human S100A9 and human RAGE-Fc (Homo sapiens, UniProt P06702).
T1 construct: made in house; host or cells: E. coli BL21(DE3)/pET1120 (pLR757)
T1 sequence (P06702 1-114): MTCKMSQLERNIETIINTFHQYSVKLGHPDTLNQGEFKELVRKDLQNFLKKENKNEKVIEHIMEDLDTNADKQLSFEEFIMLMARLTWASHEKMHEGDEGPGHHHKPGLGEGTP
Description: AlphaScreen inhibition assay, Biot-hS100A9:hRAGE-Fc (S100A9-RAGE inhibition assay). Format: binding. The conditions noted are these: biot-hS100A9 and rhRAGE-Fc, Ca2+ and Zn2+ in buffer. An excerpt:
FIG. 1 is a schematic representation of an assay of the inhibition of the interaction between biotinylated human S100A9 and human RAGE-Fc using a small molecule S100A9 binder.
Inhibition Assay, Biot-hS100A9:hRAGE-Fc
The AlphaScreen (Amplified Luminescent Proximity Homogeneous Assay) contains two types of beads, Alpha Donor beads and Acceptor beads (PerkinElmer). Upon laser excitation at 680 nm a photosensitizer in the Donor bead converts ambient oxygen to a more excited singlet state. The singlet oxygen molecule diffuses (maximum 200 nm) to react with a thioxene derivative in the Acceptor bead and generates a chemiluminescence reaction. Fluorophores in the Acceptor bead subsequently emit light at 520-620 nm which can be detected in the EnVision® Multilabel plate Reader (PerkinElmer). The beads are light sensitive and all work with the beads is performed under subdued light conditions or using green filters on light sources (Roscolux Chroma Green #389, Rosco).
In the AlphaScreen Inhibition Assay described here, protein A (Staphylococcus aureus) conjugated Acceptor beads are used together with streptavidin coated Donor beads (Perkin Elmer 6760617M). The Acceptor beads are pre-incubated with Fc-tagged recombinant human RAGE (rhRAGE-Fc) allowing binding of the rhRAGE-Fc to protein A on the beads. Biotinylated human S100A9 (biot-hS100A9) is pre-incubated with the low molecular test compounds. The pre-mixes are then added to the wells of a micro-plate and incubated allowing interaction between biot-hS100A9 and rhRAGE-Fc. Subsequent addition of streptavidin coated Donor beads causes binding of the streptavidin to the biotinylated hS100A9. After an additional incubation the signal is measured.
Without inhibitory compounds, the interaction of biot-hS100A9 to rhRAGE-Fc will bring the Acceptor and Donor beads in close proximity thus generating a high signal. With an inhibitor present the complex will not form resulting in a decreased signal.
The AlphaScreen assay method is used for screening of the inhibitory effect of different compound samples at fixed concentrations or for IC50 determination by varying the compound concentrations. Samples of test compounds and references are prepared from solutions in DMSO. Relevant reference inhibitors and DMSO are used as controls for defined inhibition and non-inhibition, respectively in the assay. The percent inhibition in assay for test compounds and references are calculated by comparing their obtained assay signals with the signal values for the control with only DMSO (no compound).
Assay concentration of biotinylated hS100A9 and rhRAGE-Fc are batch dependent, and are determined and defined by separate cross-titration experiments using this AlphaScreen inhibition method to verify the optimal setup regarding signal strength and achievement of a defined inhibition with relevant reference compounds. The Final assay concentrations of Acceptor and Donor beads are 20 μg/mL.
Assay buffer is prepared by adding CaCl2 and ZnCl2 to HBS-P and is used freshly prepared in the experiment.
Biotin-hS100A9 solution for the experiment is prepared by dilution of appropriate amount of stock solution biot-hS100A9 in assay buffer (with CaCl2 and ZnCl2) and incubation in room temperature for 30 minutes.
rhRAGE-Fc solution for the experiment is prepared by dilution appropriate amount of rhRAGE-Fc stock in assay buffer.
Protein A Acceptor beads are diluted in assay buffer and are added to an equal volume of the prepared diluted rhRAGE-Fc solution. The beads are light sensitive. The vial is covered with aluminum foil and incubated at room temperature in the dark until biot-hS100A9+compound incubation is finished (see below).
Streptavidin-coated Donor beads are diluted in assay buffer. The beads are very light sensitive. The vial is covered with aluminum foil and incubated at room temperature in the dark until use (see below).
Samples of test compounds, appropriate references and DMSO control are diluted in assay buffer. […]
(Alpha assays give light when donor and acceptor beads are brought close together.)
Regarding `COc1cccc(-c2cccc3c2nc2n3C(NC(=O)CCC3CCCC3)(C(F)(F)F)C(=O)N2)c1` (centres unmarked) [Example 189, 3-cyclopentyl-N-[9-(3-methoxyphenyl)-4-oxo-3-(trifluoromethyl)-2,5,7-triazatricyclo[6.4.0.0^2,6]dodeca-1(12),6,8,10-tetraen-3-yl]propanamide], the IC50 was found to be 950 nM.

As for `O=C(NC1(C(F)(F)F)C(=O)Nc2nc3cc(Cl)c(Cl)cc3n21)C1CCN(C(=O)CC(F)(F)F)CC1` (centres unmarked) [Example 46, N-[10,11-dichloro-4-oxo-3-(trifluoromethyl)-2,5,7-triazatricyclo[6.4.0.0^2,6]dodeca-1(12),6,8,10-tetraen-3-yl]-1-(3,3,3-trifluoropropanoyl)piperidine-4-carboxamide], the IC50 stood at 3800 nM.

Turning to `CCNc1cccc(C(=O)NC2(C(F)(F)F)C(=O)Nc3nc4cc(C)c(C)cc4n32)n1` (centres unmarked) [Example 67, N-[10,11-dimethyl-4-oxo-3-(trifluoromethyl)-2,5,7-triazatricyclo[6.4.0.0^2,6]dodeca-1(12),6,8,10-tetraen-3-yl]-6-(ethylamino)pyridine-2-carboxamide], the IC50 stood at 2000 nM.

For the compound `O=C(CCC1(O)CCCC1)NC1(C(F)(F)F)C(=O)Nc2nc3cc(Cl)c(Cl)cc3n21` (centres unmarked) [Example 88, N-[10,11-dichloro-4-oxo-3-(trifluoromethyl)-2,5,7-triazatricyclo[6.4.0.0^2,6]dodeca-1(8),6,9,11-tetraen-3-yl]-3-(1-hydroxycyclopentyl)propanamide], the IC50 amounted to 1610 nM.

In the case of `O=C(CCC1CCCC1)NC1(C(F)(F)F)C(=O)Nc2nc3cc4c(cc3n21)CCC4` (centres unmarked) [Example 78, 3-cyclopentyl-N-[12-oxo-11-(trifluoromethyl)-10,13,15-triazatetracyclo[7.6.0.0^3,7.0^10,14]-pentadeca-1(9),2,7,14-tetraen-11-yl]propanamide], the half-maximal inhibitory concentration (IC50) turned out to be 1200 nM.

As for `Cc1cc2nc3n(c2cc1C)C(NC(=O)CCc1ccccc1Cl)(C(F)(F)F)C(=O)N3` (centres unmarked) [Example 16, 3-(2-chlorophenyl)-N-[10,11-dimethyl-4-oxo-3-(trifluoromethyl)-2,5,7-triazatricyclo-[6.4.0.0^2,6]dodeca-1(8),6,9,11-tetraen-3-yl]propanamide], the IC50 was determined as 1300 nM.

On to `O=C(CCC1CCCC1)NC1(C(F)(F)F)C(=O)Nc2nc3c(-c4nnn[nH]4)cccc3n21` (centres unmarked) [Example 199, 3-cyclopentyl-N-[4-oxo-9-(1H-1,2,3,4-tetrazol-5-yl)-3-(trifluoromethyl)-2,5,7-triazatricyclo[6.4.0.0^2,6]dodeca-1(12),6,8,10-tetraen-3-yl]propanamide], for which the IC50 worked out at 920 nM.

In the case of `Cc1cc2nc3n(c2cc1C)C(NC(=O)CCCC1CCCC1)(C(F)(F)F)C(=O)N3` (centres unmarked) [Example 19, 4-cyclopentyl-N-[10,11-dimethyl-4-oxo-3-(trifluoromethyl)-2,5,7-triazatricyclo-[6.4.0.0^2,6]dodeca-1(8),6,9,11-tetraen-3-yl]butanamide], the half-maximal inhibitory concentration (IC50) was determined as 400 nM.

For `Cc1cc2nc3n(c2cc1C)C(NC(=O)[C@@H](C)c1ccccc1)(C(F)(F)F)C(=O)N3` (single isomer, unassigned) [Example 144], the IC50 turned out to be 6410 nM.

`Cc1cc2nc3n(c2cc1C)C(NC(=O)c1ccc(OCC(F)(F)F)nc1)(C(F)(F)F)C(=O)N3` (centres unmarked) [Example 21, N-[10,11-dimethyl-4-oxo-3-(trifluoromethyl)-2,5,7-triazatricyclo[6.4.0.0^2,6]dodeca-1(8),6,9,11-tetraen-3-yl]-6-(2,2,2-trifluoroethoxy)pyridine-3-carboxamide]: the IC50 turned out to be 4000 nM.

As to `O=C(CCc1ccccc1)NC1(C(F)(F)F)C(=O)Nc2nc3cc(Cl)c(Cl)cc3n21` (centres unmarked) [Example 37, N-[10,11-dichloro-4-oxo-3-(trifluoromethyl)-2,5,7-triazatricyclo[6.4.0.0^2,6]dodeca-1(8),6,9,11-tetraen-3-yl]-3-phenylpropanamide], the concentration for half-maximal inhibition (IC50) was 800 nM.

As usually defined, the IC50 is the midpoint of a concentration-inhibition curve.
